In EP0683227A1, “Human retinoic acid receptor and genes encoding for it” (INSTITUT NATIONAL DE LA SANTE ET DE LA RECHERCHE MEDICALE …, priority 1989, dated 1991):

Columns and labels:
[1] = test system: F9 teratocarcinoma cells; experiment: Northern blot of mRAR RNAs in F9 cells after RA treatment (densitometric scanning); type: cell-based, mouse
[2] = test system: mRAR-γ (mouse retinoic acid receptor γ, expression vector mRAR-γO); experiment: RA-dependent transcriptional transactivation of (TRE₃)₃-tk-CAT reporter in co-transfected HeLa cells (CAT activity); type: cell-based; settings: same concentrations as RA; data not shown
From the text: (§1) (mRAR-αO, mRAR-βO and mRAR-γO, respectively) and co-transfected into HeLa cells with a reporter plasmid, (TRE₃)₃-tk-CAT, containing a RA responsive element. […] In Fig. 3 HeLa cells were co-transfected as described in example 2 [Petkovich, M., Brand, N. J., Krust, A. & Chambon, P. Nature 330, 444-450 (1987); Brand, N., Petkovich, M., Krust, A., Chambon, P., de The, H., Marchio, A., Tiollais, P. & Dejean, A. Nature 332, 850-853 (1988)] with pSG5-based expression vectors [Green, S., Issemann, I. & Scheer, E. Nucleic Acids Res. 16, 369 (1988)] containing the entire cDNA of either mRAR-α (mRAR-αO), β (mRAR-βO) or γ (mRAR-γO), and a reporter plasmid, (TRE₃)₃-tk-CAT, carrying a synthetic RA responsive element (RARE). 24 hours after transfection, cells were fed with media containing increasing concentrations of RA as indicated (from 0 to 1x10⁻⁶ M, lanes 1-8, respectively) and harvested 48 hours post-transfection for determination of CAT activity. […] No obvious difference was observed between the dose responsiveness of mRAR-α and β, in contrast with previous results obtained with human chimeric constructs in which the C region of hRAR-α and β was replaced by the corresponding region of the human oestrogen receptor [Brand, N., Petkovich, M., Krust, A., Chambon, P., de The, H., Marchio, A., Tiollais, P. & Dejean, A. Nature 332, 850-853 (1988)]. The reason for these differences is unknown, but may be related to the use of a different and less sensitive responsive element in the present study. Direct determination of the true affinity of RAR-α, β and γ for RA must await direct binding measurements in vitro in the absence of the cellular retinoic acid binding protein.
(§2) HeLa cells (∼ 10⁶ per dish) were co-transfected with 0.5 µg of a given mRAR expression vector, 2 µg of reporter plasmid and 2 µg of pCH110 (Pharmacia, a β-galactosidase expression vector used as an internal control to normalize for variations in transfection efficiency). The total amount of transfected DNA was adjusted to 20µg by addition of carrier DNA (BSM13+). […]

[3] = test system: mRAR-α (mouse retinoic acid receptor α, expression vector mRAR-αO); experiment: as above; type: cell-based; settings: same concentrations as RA; data not shown
From the text: as §1, §2

[4] = test system: mRAR-β (mouse retinoic acid receptor β, expression vector mRAR-βO); experiment: as above; type: cell-based; settings: same concentrations as RA; data not shown
From the text: as §1, §2

[5] = test system: hRAR-γ (human retinoic acid receptor γ, hRAR-γD cDNA in pSG5 = hRAR-γ0); experiment: RA-dependent transcriptional activation of (TRE₃)₃-tk-CAT reporter by hRAR-γ0 in HeLa cells (CAT activity); type: cell-based; settings: data not shown
Method: To test the ability of hRAR-γ to activate transcription, hRAR-γD cDNA was subcloned into the eukaryotic expression vector pSG5 [Green, S., Issemann, I. & Scheer, E. Nucleic Acids Res. 16, 369 (1988)] as described in Example 6, to give hRAR-γ0 which was co-transfected into HeLa cells along with a reporter plasmid, (TRE₃)₃-tk-CAT, which contains a synthetic RA responsive element as described in Example 6. The transfected cells were exposed (24 hour post transfection) to increasing concentrations of RA, and RA-induced activation of transcription was evaluated 48 hours after transfection by determining the CAT activity expressed from the reporter gene.
The entire 1.5 kb insert from the hRAR-γD clone was inserted into the EcoRI site of the eukaryotic expression vector pSG5 [Green, S., Issemann, I. & Scheer, E. Nucleic Acids Res. 16, 369 (1988)], to yield hRAR-γ0. 500 ng of hRAR-γ0 was transfected into HeLa cells along with 2 µg of the (TRE₃)₃-tk-CAT reporter plasmid, 2 µg of a β-galactosidase expressing plasmid pCH110 (to normalize for variations in transfection efficiency) and 15 µg of carrier DNA (BSM13+) as described [Petkovich, M., Brand, N. J., Krust, A. & Chambon, P. Nature 330, 444-450 (1987)]. 24 hours following transfection, the cells were exposed for an additional 24 hour to RA for retinol with concentrations ranging from 10⁻¹¹M to 10⁻⁶. […]

Row | SMILES | fold induction at 0.33 µM ([1]; Mus musculus, F9, read-out: induction of mRAR-β RNA) | decrease of mRAR-γ RNA ([1]; RA 3.3x10⁻⁷M, 24 and 48 hours) [fold] | transactivation efficiency compared with RA [2] | transactivation efficiency compared with RA [3] | transactivation efficiency compared with RA [4] | potency as activator compared with all-trans or 13-cis retinoic acid [5]
1 | CC1=C(/C=C/C(C)=C/C=C/C(C)=C/C(=O)O)C(C)(C)CCC1 [RA, retinoic acid] | ≥ 30 | 2 | – | – | – | –
2 | CC1=C(/C=C/C(C)=C/C=C/C(C)=C/CO)C(C)(C)CCC1 [retinol] | – | – | much less efficient | much less efficient | much less efficient | much less potent activator
